Results from patent US20130172294A1, “Treatment with VB-201” (Vascular Biogenics Ltd., priority 2010, published 2013).

Assay: Effect of food and capsule coating on single-dose pharmacokinetics (Example 3)
Type: in vivo, human
Protocol: Determination of VB-201 concentrations in plasma was performed using an HPLC-MS/MS (high performance liquid chromatography with tandem mass spectrometric detection) assay. Calibration was for a range of from 5 to 500 ng/ml for low doses and from 50 to 5000 ng/ml for high doses. Pharmacokinetic parameters were estimated by using a non-compartmental method, except for the AUC (area under curve), which was determined using a (log-) trapezoidal rule as the area above the previous trough level. All calculations were made using PKWizard (developed by Russell Barbare and Dr. […] was validated against WinNonlin (Pharsight Corp.), which is an FDA-recognized validated program. Pharmacokinetic parameters were calculated by the program according to standard methods used in the art. Calculation of the pharmacokinetic characteristics was based on the actual blood sampling time (in hours), with predose times set to zero. Concentrations below the LLOQ (lower limit of quantification; 4.974 ng/ml) were assumed to be zero. The effects of food on the pharmacokinetics of enteric coated and non-coated VB-201 capsules were investigated in a double-blind, placebo-controlled study in healthy subjects. Cohorts of six subjects each received a single dose of 10 mg, 2×10 mg or 20 mg VB-201 in the morning. […] Subjects were randomly assigned to receive the drug when fed (i.e., following completion of a standardized high fat meal) or when fasting (i.e., fasting for at least 10 hours). […] Subjects then underwent an additional 8 day washout period, after which subjects underwent a second administration. Subjects who received the first administration when fasting, received the second administration when fed, and subjects who received the first administration when fed, received the second administration when fasting. Following the second administration, blood samples were taken at the same times post-dose as previously. Concentration-time curves were constructed for time periods of up to 144 hours. Pharmacokinetic parameters were calculated based on data for the first 24 hours and for the whole 144 hours. […] Nevertheless, parameters were also calculated from data covering the first 24 hours in order to compare parameters with previous studies. Statistical comparisons of doses, coated vs. non-coated capsules, feeding vs. fasting and coating-feeding interactions were performed using a mixed model ANOVA in an SAS 8.02 software package (SAS Institute, Cary, N.C.) using PROC MIXED

- AUC (0-infinity, from 24) (1 × 10 mg coated fasting): 4801 ng·h/mL
- AUC (0-infinity, from 144) (1 × 10 mg coated fasting): 8017 ng·h/mL
- AUC(0-24) (1 × 10 mg coated fasting): 2602 ng·h/mL
- AUC(0-144) (1 × 10 mg coated fasting): 7397 ng·h/mL
- AUMC (0-24) (1 × 10 mg coated fasting): 33556 hours^2*ng/ml
- AUMC (0-infinity) (1 × 10 mg coated fasting): 467760 hours^2*ng/ml
- Cl/F (0-24) (1 × 10 mg coated fasting): 3.293 L/h
- Cl/F (from 144) (1 × 10 mg coated fasting): 1.580 L/h
- Cmax (1 × 10 mg coated fasting): 171.4 ng/mL
- Ke (from 24) (1 × 10 mg coated fasting): 0.0438 h⁻¹
- Ke (from 144) (1 × 10 mg coated fasting): 0.0201 h⁻¹
- MTT (0-24) (1 × 10 mg coated fasting): 12.8 h
- MTT (from 144) (1 × 10 mg coated fasting): 60.7 h
- T1/2 (from 24) (1 × 10 mg coated fasting): 17.8 h
- T1/2 (from 144) (1 × 10 mg coated fasting): 37.6 h
- Tmax (1 × 10 mg coated fasting): 9.33 h
- AUC (0-infinity, from 24) (1 × 10 mg coated fed): 5898 ng·h/mL
- AUC (0-infinity, from 144) (1 × 10 mg coated fed): 9751 ng·h/mL
- AUC(0-24) (1 × 10 mg coated fed): 2202 ng·h/mL
- AUC(0-144) (1 × 10 mg coated fed): 8583 ng·h/mL
- AUMC (0-24) (1 × 10 mg coated fed): 32798 hours^2*ng/ml
- AUMC (0-infinity) (1 × 10 mg coated fed): 699311 hours^2*ng/ml
- Cl/F (0-24) (1 × 10 mg coated fed): 1.883 L/h
- Cl/F (from 144) (1 × 10 mg coated fed): 1.091 L/h
- Cmax (1 × 10 mg coated fed): 186.4 ng/mL
- Ke (from 24) (1 × 10 mg coated fed): 0.0352 h⁻¹
- Ke (from 144) (1 × 10 mg coated fed): 0.0166 h⁻¹
- MTT (0-24) (1 × 10 mg coated fed): 15.1 h
- MTT (from 144) (1 × 10 mg coated fed): 70.7 h
- T1/2 (from 24) (1 × 10 mg coated fed): 23.4 h
- T1/2 (from 144) (1 × 10 mg coated fed): 45.0 h
- Tmax (1 × 10 mg coated fed): 13.67 h
- AUC (0-infinity, from 24) (1 × 10 mg non-coated fasting): 9375 ng·h/mL
- AUC (0-infinity, from 144) (1 × 10 mg non-coated fasting): 15995 ng·h/mL
- AUC(0-24) (1 × 10 mg non-coated fasting): 5759 ng·h/mL
- AUC(0-144) (1 × 10 mg non-coated fasting): 14544 ng·h/mL
- AUMC (0-24) (1 × 10 mg non-coated fasting): 67186 hours^2*ng/ml
- AUMC (0-infinity) (1 × 10 mg non-coated fasting): 924243 hours^2*ng/ml
- Cl/F (0-24) (1 × 10 mg non-coated fasting): 1.184 L/h
- Cl/F (from 144) (1 × 10 mg non-coated fasting): 0.695 L/h
- Cmax (1 × 10 mg non-coated fasting): 364.5 ng/mL
- Ke (from 24) (1 × 10 mg non-coated fasting): 0.0575 h⁻¹
- Ke (from 144) (1 × 10 mg non-coated fasting): 0.0190 h⁻¹
- MTT (0-24) (1 × 10 mg non-coated fasting): 11.7 h
- MTT (from 144) (1 × 10 mg non-coated fasting): 54.2 h
- T1/2 (from 24) (1 × 10 mg non-coated fasting): 13.6 h
- T1/2 (from 144) (1 × 10 mg non-coated fasting): 39.7 h
- Tmax (1 × 10 mg non-coated fasting): 7.67 h
- AUC (0-infinity, from 24) (1 × 10 mg non-coated fed): 7019 ng·h/mL
- AUC (0-infinity, from 144) (1 × 10 mg non-coated fed): 16062 ng·h/mL
- AUC(0-24) (1 × 10 mg non-coated fed): 4855 ng·h/mL
- AUC(0-144) (1 × 10 mg non-coated fed): 13717 ng·h/mL
- AUMC (0-24) (1 × 10 mg non-coated fed): 60611 hours^2*ng/ml
- AUMC (0-infinity) (1 × 10 mg non-coated fed): 1254665 hours^2*ng/ml
- Cl/F (0-24) (1 × 10 mg non-coated fed): 1.552 L/h
- Cl/F (from 144) (1 × 10 mg non-coated fed): 0.702 L/h
- Cmax (1 × 10 mg non-coated fed): 343.3 ng/mL
- Ke (from 24) (1 × 10 mg non-coated fed): 0.0670 h⁻¹
- Ke (from 144) (1 × 10 mg non-coated fed): 0.0180 h⁻¹
- MTT (0-24) (1 × 10 mg non-coated fed): 12.5 h
- MTT (from 144) (1 × 10 mg non-coated fed): 70.3 h
- T1/2 (from 24) (1 × 10 mg non-coated fed): 11.2 h
- T1/2 (from 144) (1 × 10 mg non-coated fed): 47.7 h
- Tmax (1 × 10 mg non-coated fed): 10.17 h
- AUC (0-infinity, from 24) (1 × 20 mg coated fasting): 9794 ng·h/mL
- AUC (0-infinity, from 144) (1 × 20 mg coated fasting): 15637 ng·h/mL
- AUC(0-24) (1 × 20 mg coated fasting): 5362 ng·h/mL
- AUC(0-144) (1 × 20 mg coated fasting): 14579 ng·h/mL
- AUMC (0-24) (1 × 20 mg coated fasting): 68472 hours^2*ng/ml
- AUMC (0-infinity) (1 × 20 mg coated fasting): 849853 hours^2*ng/ml
- Cl/F (0-24) (1 × 20 mg coated fasting): 3.188 L/h
- Cl/F (from 144) (1 × 20 mg coated fasting): 2.387 L/h
- Cmax (1 × 20 mg coated fasting): 366.3 ng/mL
- Ke (from 24) (1 × 20 mg coated fasting): 0.0385 h⁻¹
- Ke (from 144) (1 × 20 mg coated fasting): 0.0203 h⁻¹
- MTT (0-24) (1 × 20 mg coated fasting): 12.8 h
- MTT (from 144) (1 × 20 mg coated fasting): 53.8 h
- T1/2 (from 24) (1 × 20 mg coated fasting): 19.9 h
- T1/2 (from 144) (1 × 20 mg coated fasting): 35.6 h
- Tmax (1 × 20 mg coated fasting): 8.17 h
- AUC (0-infinity, from 24) (1 × 20 mg coated fed): 20054 ng·h/mL
- AUC (0-infinity, from 144) (1 × 20 mg coated fed): 16687 ng·h/mL
- AUC(0-24) (1 × 20 mg coated fed): 4655 ng·h/mL
- AUC(0-144) (1 × 20 mg coated fed): 14968 ng·h/mL
- AUMC (0-24) (1 × 20 mg coated fed): 66330 hours^2*ng/ml
- AUMC (0-infinity) (1 × 20 mg coated fed): 1070977 hours^2*ng/ml
- Cl/F (0-24) (1 × 20 mg coated fed): 1.400 L/h
- Cl/F (from 144) (1 × 20 mg coated fed): 1.583 L/h
- Cmax (1 × 20 mg coated fed): 306.6 ng/mL
- Ke (from 24) (1 × 20 mg coated fed): 0.0230 h⁻¹
- Ke (from 144) (1 × 20 mg coated fed): 0.0179 h⁻¹
- MTT (0-24) (1 × 20 mg coated fed): 14.9 h
- MTT (from 144) (1 × 20 mg coated fed): 62.9 h
- T1/2 (from 24) (1 × 20 mg coated fed): 53.2 h
- T1/2 (from 144) (1 × 20 mg coated fed): 39.6 h
- Tmax (1 × 20 mg coated fed): 11.67 h
Compound: CCCCCCCCCCCCCCCCOCC(COP(=O)([O-])OCC[N+](C)(C)C)OCCCCC(=O)O (stereo not drawn) [VB-201, 1-hexadecyl-2-(4′-carboxybutyl)-glycerol-3-phosphocholine]
